Measurements as given in patent US9840478B2 (MERCK SHARP & DOHME CORP., priority 2013, dated 2017).
Like-named read-outs stand apart in the source and are kept apart here.

System: HIV-1 (H9IIIB strain)
Assay: Cell-based HIV infection assay using a reporter (Cell-Based), MT4-GFP cells
Settings: 50% normal human serum, mean of at least two independent experiments, read-out: Cell-based IP
Outline: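 IC50 from 4-parameter dose-response of % viral growth inhibition, using the 48 h/24 h infected-cell ratio scaled between DMSO and a protease/integrase/NNRTI triple-drug control. Assay used MT4 cells with HIV-LTR-GFP reporter, pre-infected 24 h with HIV-1 H9IIIB, in 50% normal human serum.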

[1] = Human immunodeficiency virus 1, MT4-GFP cells infected with HIV-1 H9IIIB

Row | Compound | IC50 [1] [nM] | IC50 (MT4-GFP cells infected with HIV-1 H9IIIB) [nM]
1 | C[C@H]1CNC[C@H](CCc2c(F)cncc2NC(=O)[C@@H](N)[C@@H](c2ccc(F)cc2)c2cc(F)cc(F)c2)N1S(=O)(=O)C1CC1 [Example 197, (BS)-N-(4-{2-[(2S,6S)-1-(cyclopropylsulfonyl)-6-methylpiperazin-2-yl]ethyl}-5-fluoropyridin-3-yl)-β-(3,5-difluorophenyl)-4-fluoro-L-phenylalaninamide] | 18 | 
2 | COC(=O)N[C@H](C(=O)Nc1cccc(F)c1CC[C@H]1CNC[C@@H](C)N1S(C)(=O)=O)[C@H](c1cccc(F)c1)c1cccc(Cl)c1 [Example 173, (βR)-3-chloro-N-(3-fluoro-2-{2-[(2S,6R)-6-methyl-1-(methylsulfonyl)piperazin-2-yl]ethyl}phenyl)-β-(3-fluorophenyl)-Nα-(methoxycarbonyl)-L-phenylalaninamide] | 90 | 
3 | CC(C)[C@H](c1cccc(Cl)c1)[C@H](N)C(=O)Nc1cccc(F)c1CC[C@H]1CNC[C@H](C)N1S(=O)(=O)c1ccccc1 [Example 207, (βR)-3-chloro-N-(3-fluoro-2-{2-[(2S,6S)-6-methyl-1-(phenylsulfonyl)piperazin-2-yl]ethyl}phenyl)-β-(1-methylethyl)-L-phenylalaninamide] | 760 | 
4 | CS(=O)(=O)N1C(COCc2ccccc2)CNC[C@@H]1CCc1c(F)cccc1NC(=O)[C@@H](N)[C@@H](Cc1ccc(F)cc1)c1ccc(Cl)cc1 (stereo partly drawn) [Example 226, (βS)-N-(2-{2-[(2S)-6-[(benzyloxy)methyl]-1-(methylsulfonyl)piperazin-2-yl]ethyl}-3-fluorophenyl)-4-chloro-β-(4-fluorobenzyl)-L-phenylalaninamide] | 1100 | 
5 | N[C@H](C(=O)Nc1cncc(F)c1CC[C@H]1CNCCN1S(=O)(=O)c1ccccc1)[C@@H](c1ccc(F)cc1)c1cc(F)cc(F)c1 [Example 30, (βS)-β-(3,5-difluorophenyl)-4-fluoro-N-(5-fluoro-4-{2-[(2S)-1-(phenylsulfonyl)piperazin-2-yl]ethyl}pyridin-3-yl)-L-phenylalaninamide] | 9.3 | 
6 | N[C@H](C(=O)Nc1cccc(F)c1CC[C@H]1CNCCN1S(=O)(=O)c1ccccc1)[C@@H](c1ccc(Cl)cc1)c1cncc(F)c1 [Example 44, (βS)-4-chloro-N-(3-fluoro-2-{2-[(2S)-1-(phenylsulfonyl)piperazin-2-yl]ethyl}phenyl)-β-(5-fluoropyridin-3-yl)-L-phenylalaninamide] | 15 | 
7 | C[C@@H]1CNC[C@H](CCc2c(F)cncc2NC(=O)[C@@H](N)[C@@H](c2ccc(F)cc2)c2cc(F)cc(F)c2)N1S(=O)(=O)C1CC1 [Example 15, (βS)—N-(4-{2-[(2S,6R)-1-(cyclopropylsulfonyl)-6-methylpiperazin-2-yl]ethyl}-5-fluoropyridin-3-yl)-β-(3,5-difluorophenyl)-4-fluoro-L-phenylalaninamide] | 18 | 
8 | COc1ccc([C@H](c2ccc(Cl)cc2)[C@H](N)C(=O)Nc2cccc(F)c2CC[C@H]2CNC[C@@H](C)N2S(=O)(=O)c2ccccc2)cn1 [Example 14, (βS)-4-chloro-N-(3-fluoro-2-{2-[(2S,6R)-6-methyl-1-(phenylsulfonyl)piperazin-2-yl]ethyl}phenyl)-β-(6-methoxypyridin-3-yl)-L-phenylalaninamide] | 18 | 
9 | COC(=O)N[C@H](C(=O)Nc1cccc(F)c1CC[C@H]1CNC[C@H](C)N1S(C)(=O)=O)C(c1cccc(F)c1)c1cccc(F)c1 [Example 171, 3-fluoro-N-(3-fluoro-2-{2-[(2S,6S)-6-methyl-1-(methylsulfonyl)piperazin-2-yl]ethyl}phenyl)-β-(3-fluorophenyl)-Nα-(methoxycarbonyl)-L-phenylalaninamide] | 26 | 
10 | O=C(C[C@@H](c1ccc(F)cc1)c1cc(F)cc(F)c1)Nc1cncc(F)c1CC[C@H]1CNCCN1C(=O)CCOc1ccccc1 [Example 348, (3S)-3-(3,5-difluorophenyl)-N-(5-fluoro-4-{2-[(2S)-1-(3-phenoxypropanoyl)piper-azin-2-yl]ethyl}pyridin-3-yl)-3-(4-fluorophenyl)propanamide] | 190 | 
11 | COc1ccc([C@H](c2ccc(Cl)cc2)[C@H](N)C(=O)Nc2cccc(F)c2CC[C@H]2CNCCN2S(=O)(=O)c2ccccc2)cn1 [Example 67, (βS)-4-chloro-N-(3-fluoro-2-{2-[(2S)-1-(phenylsulfonyl)piperazin-2-yl]ethyl}phenyl)-β-(6-methoxypridin-3-yl)-L-phenylalaninamide] | 5.8 | 
12 | N[C@H](C(=O)Nc1cccc(F)c1CC[C@@H]1CNCCN1S(=O)(=O)c1ccccc1)C(c1ccc(F)cc1)c1ccc(F)cc1 [Example 31, (S)-2-amino-N-(3-fluoro-2-(2-((R)-1-(phenylsulfonyl)piperazin-2-yl)ethyl)phenyl)-3,3-bis(4-fluorophenyl) propanamide] | 850 | 
13 | N[C@H](C(=O)Nc1cccc(F)c1CC[C@H]1CNCCN1S(=O)(=O)c1ccccc1)[C@@H](c1ccc(Cl)cc1)c1cncc(C(F)(F)F)c1 [Example 6, (2S,3S)-2-amino-3-(4-chlorophenyl)-N-(3-fluoro-2-(2-((S)-1-(phenylsulfonyl)piperazin-2-yl)ethyl)phenyl)-3-(5-(trifluoromethyl)pyridine-3-yl)propanamide] | 7.8 | 
14 | CC(C)[C@H](c1cccc(Cl)c1)[C@H](N)C(=O)Nc1cccc(F)c1CC[C@H]1CNC[C@@H](C)N1S(=O)(=O)c1ccccc1 [Example 206, (βR)-3-chloro-N-(3-fluoro-2-{2-[(2S,6R)-6-methyl-1-(phenylsulfonyl)piperazin-2-yl]ethyl}phenyl)-β-(1-methylethyl)-L-phenylalaninamide] | 480 | 
15 | COC(=O)N[C@H](C(=O)Nc1cccc(F)c1CC[C@H]1CNC[C@@H](C)N1S(C)(=O)=O)[C@@H](c1ccc(Cl)cc1)C1CCOCC1 [Example 183, (βR)-4-chloro-N-(3-fluoro-2-{2-[(2S,6R)-6-methyl-1-(methylsulfonyl)piperazin-2-yl]ethyl}phenyl)-Nα-(methoxycarbonyl)-β-(tetrahydro-2H-pyran-4-yl)-L-phenylalaninamide] | 67 | 
16 | C[C@H]1CNC[C@H](CCc2c(F)cccc2NC(=O)[C@@H](N)C2(c3ccc(F)c(F)c3)CCOCC2)N1S(=O)(=O)c1ccccc1 [Example 292, (2S)-2-amino-2-[4-(3,4-difluorophenyl)tetrahydro-2H-pyran-4-yl]-N-(3-fluoro-2-{2-[(2S,6S)-6-methyl-1-(phenylsulfonyl)piperazin-2-yl]ethyl}phenyl)ethanamide] | 130 | 
17 | O=C(N[C@H](C(=O)Nc1cncc(F)c1CC[C@H]1CNCCN1S(=O)(=O)C1CC1)[C@@H](c1ccc(F)cc1)c1cc(F)cc(F)c1)C1CC1 [Example 81] | 25 | 
18 | COC(=O)N[C@H](C(=O)Nc1cccc(F)c1CC[C@H]1CNC[C@H](C)N1S(=O)(=O)c1ccccc1)[C@H](c1cccc(F)c1)c1cccc(Cl)c1 [Example 155, (βR)-3-chloro-N-(3-fluoro-2-{2-[(2S,6S)-6-methyl-1-(phenylsulfonyl)piperazin-2-yl]ethyl}phenyl)-β-(3-fluorophenyl)-Nα-(methoxycarbonyl)-L-phenylalaninamide] | 67 | 
19 | Cn1ccc(S(=O)(=O)N2CCNC[C@@H]2CCc2c(F)cncc2NC(=O)C[C@@H](c2ccc(F)cc2)c2cc(F)cc(F)c2)n1 [Example 306, (3S)-3-(3,5-difluorophenyl)-N-[5-fluoro-4-(2-{(2S)-1-[(1-methyl-1H-pyrazol-3-yl)sulfonyl]piperazin-2-yl}ethyl)pyridin-3-yl]-3-(4-fluorophenyl)propanamide] | 6.5 | 
20 | CC(C)[C@H](c1ccc(Cl)cc1)[C@H](N)C(=O)Nc1cccc(F)c1CC[C@H]1CNC[C@H](C)N1S(=O)(=O)c1ccccc1 [Example 109, (βR)-4-chloro-N-(3-fluoro-2-{2-[(2S,6S)-6-methyl-1-(phenylsulfonyl)piperazin-2-yl]ethyl}phenyl)-β-(1-methylethyl)-L-phenylalaninamide] | 65 | 
21 | C[C@H]1CNC[C@H](CCc2c(F)cccc2NC(=O)[C@@H](N)[C@@H](c2ccc(F)cc2)C2CCOCC2)N1S(=O)(=O)C1CC1 [Example 114, (βR)-N-(2-{2-[(2S,6S)-1-(cyclopropylsulfonyl)-6-methylpiperazin-2-yl]ethyl}-3-fluorophenyl)-4-fluoro-β-(tetrahydro-2H-pyran-4-yl)-L-phenylalaninamide] | 100 | 
22 | COC(=O)NC(C(=O)NC1CC1CC[C@H]1CNCCN1S(=O)(=O)c1ccccc1)C(c1ccc(F)cc1)c1ccc(F)cc1 (single isomer, unassigned) [Example 362] |  | 76
23 | CC(C)[C@H](c1ccc(Cl)cc1)[C@H](N)C(=O)Nc1cccc(F)c1CC[C@H]1CNC[C@H](C)N1S(C)(=O)=O [Example 122, (βR)-4-chloro-N-(3-fluoro-2-{2-[(2S,6S)-6-methyl-1-(methylsulfonyl)piperazin-2-yl]ethyl}phenyl)-β-(1-methylethyl)-L-phenylalaninamide] | 360 | 
24 | COC(=O)N[C@H](C(=O)Nc1cccc(F)c1CC[C@H]1CNC[C@H](C)N1S(=O)(=O)c1ccc(OC)cc1)[C@@H](c1ccc(F)cc1)c1cc(F)cc(F)c1 [Example 252, (βS)-β-(3,5-difluorophenyl)-4-fluoro-N-[3-fluoro-2-(2-{(2S,6S)-1-[(4-methoxyphenyl)sulfonyl]-6-methylpiperazin-2-yl}ethyl)phenyl]-Nα-(methoxycarbonyl)-L-phenylalaninamide] | 7.9 | 
25 | C[C@H]1CNC[C@H](CCc2c(F)cccc2NC(=O)[C@@H](N)[C@@H](Cc2ccc(F)cc2)c2ccc(Cl)cc2)N1S(=O)(=O)c1ccc(OC(F)(F)F)cc1 [Example 220, (βS)-4-chloro-β-(4-fluorobenzyl)-N-(3-fluoro-2-{2-[(2S,6S)-6-methyl-1-{[4-(trifluoromethoxy)phenyl]sulfonyl}piperazin-2-yl]ethyl}phenyl)-L-phenylalaninamide] | 780 | 
